# Where two headings read alike, the source gives them in different places.
# What was measured:
# Type in all cases: cell-based
# [1] = In vitro potency (CellTiter-Glo, 96 h) on Ls174T; details: Homo sapiens, LS174T; CPT free drugs; CellTiter-Glo after 96 h exposure; read-out: Ls174T IC50
# How it was run: (§1)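 Log-phase cells were seeded 24 h in RPMI 1640 with 20% FBS, then exposed to serially diluted […] for 96 h. Growth inhibition was measured by CellTiter-Glo luminescence.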
# [2] = tested on: non-small-cell lung cancer cells (Calu1); assay: In vitro potency (CellTiter-Glo, 96 h) on Calu1; details: Homo sapiens, Calu-1, 96 h, CPT free drugs; CellTiter-Glo after 96 h exposure; read-out: Calu1 IC50
# How it was run: as §1
# [3] = tested on: breast cancer cells (MDA-MB-231); assay: In vitro potency (CellTiter-Glo, 96 h) on MDA-MB-231; details: CPT free drugs, CellTiter-Glo after 96 h exposure, read-out: MDAMB 231 IC50
# How it was run: as §1
# [4] = tested on: Hodgkin's lymphoma cells (L540cy); assay: In vitro potency (CellTiter-Glo, 96 h) on L540cy; details: L540cy, 96 h, CPT free drugs; CellTiter-Glo after 96 h exposure; read-out: L540cy IC50
# How it was run: as §1
# [5] = tested on: anaplastic large cell lymphoma cells (DEL); assay: In vitro potency (CellTiter-Glo, 96 h) on DEL; details: 96 h, CPT free drugs; CellTiter-Glo after 96 h exposure; read-out: DEL IC50
# How it was run: as §1
# [6] = tested on: renal carcinoma cells (786-O); assay: In vitro potency (CellTiter-Glo, 96 h) on 786-O; details: Homo sapiens, 786-0, 96 h, CPT free drugs; CellTiter-Glo after 96 h exposure; read-out: 786-O IC50
# How it was run: as §1
# [7] = tested on: anaplastic large cell lymphoma cells (DELBVR); assay: In vitro potency (CellTiter-Glo, 96 h) on DELBVR; details: 96 h, CPT free drugs; CellTiter-Glo after 96 h exposure; read-out: DELBVR IC50
# How it was run: as §1
# [8] = tested on: melanoma cells (A2058); assay: In vitro potency (CellTiter-Glo, 96 h) on A2058; details: Homo sapiens, A2058, 96 h, CPT free drugs; CellTiter-Glo after 96 h exposure; read-out: A2058 IC50
# How it was run: as §1
# [9] = tested on: acute myeloid leukemia cells (MOLM-13); assay: In vitro potency (CellTiter-Glo, 96 h) on MOLM-13; details: CPT free drugs, CellTiter-Glo after 96 h exposure, read-out: MOLM-13 IC50
# How it was run: as §1
# [10] = tested on: B-lymphocyte cancer cells (SU-DHL4); assay: In vitro potency (CellTiter-Glo, 96 h) on SU-DHL4; details: Homo sapiens, SU-DHL-4, 96 h, CPT free drugs; CellTiter-Glo after 96 h exposure; read-out: SU-DHL-4 IC50
# How it was run: as §1
# [11] = tested on: pancreatic cancer cells (BxPC3); assay: In vitro potency (CellTiter-Glo, 96 h) on BxPC3; details: Homo sapiens, BXPC-3, 96 h, CPT free drugs; CellTiter-Glo after 96 h exposure; read-out: BxPC3 IC50
# How it was run: as §1
# [12] = tested on: anaplastic large cell lymphoma cells (Karpas299); assay: In vitro potency (CellTiter-Glo, 96 h) on Karpas299; details: Homo sapiens, KARPAS-299, 96 h, CPT free drugs; CellTiter-Glo after 96 h exposure; read-out: Karpas299 IC50
# How it was run: as §1
smiles,measurement,setting,value
CC[C@@]1(O)C(=O)OCc2c1cc1n(c2=O)Cc2c-1nc1cc(F)c(C)c(C3=CCCC3)c1c2CN [Compound 6c],IC50,[1],18 nM
same,IC50,[2],15 nM
same,IC50,"[3]; Homo sapiens, MDA-MB-231, 96 h",7 nM
same,IC50,[4],3 nM
same,IC50,[5],1 nM
same,IC50,[6],4 nM
same,IC50,[7],2 nM
same,IC50,[8],5 nM
same,IC50,"[9]; Homo sapiens, MOLM-13, 96 h",4 nM
same,IC50,[10],2 nM
same,IC50,[11],5 nM
same,IC50,[12],3 nM
"CC[C@@]1(O)C(=O)OCc2c1cc1n(c2=O)Cc2c-1nc1cc3c(cc1c2CN)C(C)CO3 (stereo partly drawn) [Compound 11, (5S)-14-(aminomethyl)-5-ethyl-5-hydroxy-18-methyl-7,20-dioxa-11,24 diazahexacyclo[11.11.0.02,11.04,9.015,23.017,21]tetracosa-1(24),2,4(9),13,15(23),16,21-heptaene-6,10-dione]",IC50,[1],> 1000 nM
same,IC50,[2],69 nM
same,IC50,[3],41 nM
same,IC50,[4],4 nM
same,IC50,[5],1 nM
same,IC50,[6],8 nM
same,IC50,[7],2 nM
same,IC50,[8],3 nM
same,IC50,[9],108 nM
same,IC50,[10],4 nM
same,IC50,[11],12 nM
same,IC50,[12],14 nM
CC[C@@]1(O)C(=O)OCc2c1cc1n(c2=O)Cc2c-1nc1cc3c(cc1c2Cn1ccnc1)OCO3 [Compound 7ai],IC50,[1],8 nM
same,IC50,[2],81 nM
same,IC50,"[3]; Homo sapiens, MDA-MB-231, 96 h",52 nM
same,IC50,[4],4 nM
same,IC50,[5],1 nM
same,IC50,[6],12 nM
same,IC50,[7],3 nM
same,IC50,[8],3 nM
same,IC50,"[9]; Homo sapiens, MOLM-13, 96 h",9 nM
same,IC50,[10],3 nM
same,IC50,[11],17 nM
same,IC50,[12],6 nM
CC[C@@]1(O)C(=O)OCc2c1cc1n(c2=O)Cc2c-1nc1ccc3c(c1c2CN)COC3 [Compound 2aq],IC50,[1],12 nM
same,IC50,[2],1 nM
same,IC50,"[3]; Homo sapiens, MDA-MB-231, 96 h",12 nM
same,IC50,[4],4 nM
same,IC50,[5],2 nM
same,IC50,[6],11 nM
same,IC50,[7],3 nM
same,IC50,[8],18 nM
same,IC50,"[9]; Homo sapiens, MOLM-13, 96 h",39 nM
same,IC50,[10],5 nM
same,IC50,[11],27 nM
same,IC50,[12],7 nM

# Source: patent US20230381321A1, “CAMPTOTHECIN CONJUGATES” (priority 2022, published 2023)
